Measured values published in publication PMC9635472, “Design, synthesis, and biological evaluation of novel ciprofloxacin derivatives as potential anticancer agents targeting topoisomerase II enzyme” (Journal of Enzyme Inhibition and Medicinal Chemistry, 2022).

Tests used:
[1] = system: Human bladder cancer (T-24) cell line; experiment: MTT cell viability assay, T-24 cells; format: cell-based; settings: bladder cancer cell line T-24, treatment for 24 h (table title), means of three experiments, read-out: IC50 (μM* ± SD) T-24
Method: (§1) Human bladder cancer (T-24) and human prostate carcinoma (PC-3) cell lines were obtained from American Type Culture Collection (ATCC; Manassas, VA USA). Cells were maintained in Dulbecco’s modified Eagle medium with 10% foetal bovine serum at 37 °C and 5% CO2. All the operations were carried out under strict aseptic conditions. The culture medium was removed to a centrifuge tube containing 9.0 ml complete culture medium and spanned at approximately 125 × g for 5 to 7 min. The cell layer was rinsed with 0.25% (w/v) trypsin- […] EDTA solution by which all traces of serum-containing inhibitor were removed. Trypsin EDTA solution 2.0 to 3.0 ml was added to a flask and cells were monitored under an inverted microscope until the cell layer was dispersed (usually within 5–15 min). A complete growth medium was added (6.0–8.0 ml), and cells were aspirated by gentle pipetting. The cell pellet was suspended with the recommended complete medium and dispensed into a 75 cm^2 culture flask. The culture vessel containing the complete growth medium was placed in the incubator for 24 h to at 37 °C. The cells were treated with different concentrations (0.39, 1.60, 6.25, 25, and 100 μg/ml) of each of the test compounds or doxorubicin, […], then the plates were examined under the inverted microscope and finally the MTT assay was carried out.
(§2) Anti-cancer activity of the newly synthesised compounds was evaluated in vitro against both T-24 and PC-3 cell lines according to the MTT method. Cells were seeded into 96-well plates (flat bottom) at a density of 10 000 cells/well for 24 h. The vial of MTT to be used was reconstituted with 3 ml of medium or balanced salt solution without phenol red and serum. then, a reconstituted MTT vial was added in an amount equal to 10% of the culture medium volume. Cultures were incubated for 2–4 h depending on the cell type and maximum cell density and removed from the incubator and the formazan crystals were dissolved via the addition of an amount of MTT solubilisation solution (M-8910) equal to the original culture medium volume. ROBONIK P2000 spectrophotometer at a wavelength of 570 nm was used to measure the colour intensity spectrophotometrically. The survival curve of both T-24 and PC-3 cells was obtained by plotting the percentage of surviving cells against the drug after each compound. The IC50 value for each test compound and the reference drug doxorubicin was calculated.
(§3) In this study, all the newly synthesised CP derivatives were subjected to anticancer activity evaluation against bladder (T-24) and prostate cancer (PC-3) cell lines. The compounds were evaluated for their activity using 5 doses determinations (100 μg/ml, 25 μg/ml, 6.25 μg/ml, 1.60 μg/ml, and 0.39 μg/ml). Their half-maximal inhibitory concentration (IC50) values were measured. Doxorubicin was chosen as a reference anticancer drug[65].

[2] = system: human prostate carcinoma (PC-3) cell line; experiment: MTT cell viability assay, PC-3 cells; format: cell-based; settings: prostate cancer cell line PC-3, treatment for 24 h (table title), means of three experiments, read-out: IC50 (μM* ± SD) PC-3
Method: as §1, §2, §3

Structure (SMILES) | IC50 [1] | IC50 [2] | melting point
CC1=NN(C(=O)CN2CCN(c3cc4c(cc3F)c(=O)c(C(=O)O)cn4C3CC3)CC2)C(=O)C1 [Compound 3, 1-cyclopropyl-6-fluoro-7-(4-(2-(3-methyl-5-oxo-4,5-dihydro-1H-pyrazol-1-yl)-2-oxoethyl)piperazin-1-yl)-4-oxo-1,4-dihydroquinoline-3-carboxylic acid] | 37.3 ± 2.02 µM | 98.2 ± 5 µM | 188 to 190 °C
N=C1CC(=O)NN1C(=O)CN1CCN(c2cc3c(cc2F)c(=O)c(C(=O)O)cn3C2CC2)CC1 [Compound 4, 1-cyclopropyl-6-fluoro-7-(4-(2-(5-imino-3-oxopyrazolidin-1-yl)-2-oxoethyl)piperazin-1-yl)-4-oxo-1,4-dihydroquinoline-3-carboxylic acid] | 25.5 ± 1.38 µM | 29.9 ± 1.53 µM | 181 to 183 °C
Cc1cc(C)n(C(=O)CN2CCN(c3cc4c(cc3F)c(=O)c(C(=O)O)cn4C3CC3)CC2)n1 [Compound 5, 1-cyclopropyl-7-(4-(2-(3,5-dimethyl-1H-pyrazol-1-yl)-2-oxoethyl)piperazin-1-yl)-6-fluoro-4-oxo-1,4-dihydro-quinoline-3-carboxylic acid] | 25.9 ± 1.39 µM | 24.9 ± 1.26 µM | –
CC(=NNC(=O)CN1CCN(c2cc3c(cc2F)c(=O)c(C(=O)O)cn3C2CC2)CC1)c1ccc(N)cc1 [Compound 7c, 7-(4-(2-(2-(1-(4-Aminophenyl)ethylidene)hydrazinyl)-2-oxoethyl)-piperazin-1-yl)-1-cyclopropyl-6-fluoro-4-oxo-1,4-dihydroquinoline-3-carboxylic acid] | 25.6 ± 0.71 µM | 32.8 ± 0.86 µM | 173 to 175 °C
CC(=NNC(=O)CN1CCN(c2cc3c(cc2F)c(=O)c(C(=O)O)cn3C2CC2)CC1)c1ccccc1O [Compound 7d, 1-Cyclopropyl-6-fluoro-7-(4-(2-(2-(1-(2-hydroxyphenyl)ethylidene)hydrazinyl)-2-oxoethyl)piperazin-1-yl)-4-oxo-1,4-dihydroquinoline-3-carboxylic acid] | 88 ± 4.75 µM | 8.81 ± 0.44 µM | 166 to 168 °C
CC(=NNC(=O)CN1CCN(c2cc3c(cc2F)c(=O)c(C(=O)O)cn3C2CC2)CC1)c1cccs1 [Compound 7e, 1-Cyclopropyl-6-fluoro-4-oxo-7-(4-(2-oxo-2-(2-(1-(thiophen-2-yl)ethylidene)hydrazinyl)ethyl)piperazin-1-yl)-1,4-dihydroquinoline-3-carboxylic acid] | 25 ± 0.2 µM | 50.5 ± 10.4 µM | 245 to 247 °C
CC(=NNC(=O)CN1CCN(c2cc3c(cc2F)c(=O)c(C(=O)O)cn3C2CC2)CC1)c1ccc(Cl)s1 [Compound 7f, 7-(4-(2-(2-(1-(5-Chlorothiophen-2-yl)ethylidene)hydrazinyl)-2-oxoethyl)piperazin-1-yl)-1-cyclopropyl-6-fluoro-4-oxo-1,4-dihydro-quinoline-3-carboxylic acid] | 124 ± 6.7 µM | 136 ± 6.94 µM | 286 to 288 °C
O=C(CN1CCN(c2cc3c(cc2F)c(=O)c(C(=O)O)cn3C2CC2)CC1)NN=C1C(=O)Nc2cccc(Br)c21 [Compound 8b, 7-(4-(2-(2-(4-Bromo-2-oxoindolin-3-ylidene)hydrazinyl)-2-oxoethyl)piperazin-1-yl)-1-cyclopropyl-6-fluoro-4-oxo-1,4-dihydro-quinoline-3-carboxylic acid] | 336 ± 18.1 µM | 41.1 ± 2.09 µM | 263 to 265 °C
Cc1cccc(Cl)c1NC(=O)NNC(=O)CN1CCN(c2cc3c(cc2F)c(=O)c(C(=O)O)cn3C2CC2)CC1 [Compound 9b, 7-(4-(2-(2-((2-Chloro-6-methylphenyl)carbamoyl)hydrazinyl)-2-oxoethyl)piperazin-1-yl)-1-cyclopropyl-6-fluoro-4-oxo-1,4-dihydro-quinoline-3-carboxylic acid] | 28.6 ± 1.54 µM | 19.3 ± 0.98 µM | 285 to 287 °C
